Data set [1] relates to L. donovani axenic amastigotes. As to the kind of experiment: microbe, parasite or virus in culture. It is filed as cell-based, Leishmania donovani. The method, then: (§1) Leishmaniasis efficacy was tested against L. donovani axenic amastigotes (amphotericin B, positive control=0.38 μM). Cytotoxicity was verified against Vero cells.
Another data set relates to Vero cells. The data set can be described thus: Cytotoxicity against Vero cells. It is filed as cell-based. The conditions noted are these: for pIC50: cytotoxicity, read-out: IC50 Values Vero Cell. The protocol: as §1
Where [2] appears, read: axenic amastigotes, read-out: IC50 Values Leishmania donovani.

pIC50: −log10 of the molar value. Where two headings read alike, the source gives them in different places.

Regarding membranolide F, the pIC50 (as a rule, the IC50 on a negative log10 scale, so that one unit is a factor of ten) in data set [1] (setting [2]) is 4.57; in the data set with Vero cells it was 4.37.
Regarding membranolide G, the “activity against L. donovani (in words)” value in data set [1] is on record as “potent activity”. The pIC50 in data set [1] (setting [2]) is 6.09. Moreover, in the data set with Vero cells, the “cytotoxicity (in words)” value is “lacking significant cytotoxicity” and the pIC50 is < 4.27.
Consider `CO[C@H]1OC(=O)[C@H](C)c2c([C@@]3(C)CCCC(C)(C)C3)ccc(C=O)c21` [Membranolide B, membranolide B], for which the pIC50 in data set [1] (setting [2]) was 4.24; with Vero cells, 4.35.
aplysulphurin: the “selectivity index (cytotoxicity/activity)” value in data set [1] was “high selectivity index”. Besides, the pIC50 in data set [1] (setting [2]) was 5.81; in the data set on Vero cells it was 4.32.
As for `CC(=O)O[C@@H]1OC2OC(=O)[C@H](C)C3=C([C@@]4(C)CCCC(C)(C)C4)CCC1C32` (stereo partly drawn) [Tetrahydroaplysulphurin, tetrahydroaplysulphurin], the pIC50 in data set [1] (setting [2]) is 4.76; with Vero cells it was 4.27.
As for membranolide H, in data set [1], the “activity against L. donovani (in words)” value was “potent activity”. Moreover, the negative-log IC50 (pIC50) in data set [1] (setting [2]) was 5.94. For the same compound, in the data set with Vero cells, the “cytotoxicity (in words)” value is “lacking significant cytotoxicity” and the negative-log IC50 (pIC50) was < 4.27.
With `CO[C@@H]1O[C@@H](OC)c2c1ccc([C@@]1(C)CCCC(C)(C)C1)c2[C@@H](C)C(=O)O` [Membranolide C, membranolide C], the pIC50 is < 4.27 in data set [1] (setting [2]) and 4.39 in the data set on Vero cells.
As to `C[C@@H]1[C@H](O)[C@@H](C)/C=C/C=C/C=C/C=C/C=C/C=C/C=C/[C@H](O[C@@H]2O[C@H](C)[C@@H](O)[C@H](N)[C@@H]2O)C[C@@H]2O[C@](O)(C[C@@H](O)C[C@@H](O)[C@H](O)CC[C@@H](O)C[C@@H](O)CC(=O)O[C@H]1C)C[C@H](O)[C@H]2C(=O)O` [amphotericin B, reference compound], the pIC50 in data set [1] (setting [2]) is 6.42.
As for membranolide A, the “IC50 Values Leishmania donovani” value in data set [1] (axenic amastigotes) is recorded as “Inactive”. For the same compound, the pIC50 in the data set with Vero cells was < 4.24.
Regarding `CO[C@@H]1O[C@@H](OC)c2c1ccc([C@@]1(C)CCCC(C)(C)C1)c2[C@@H](C)C(=O)O` [Membranolide D, membranolide D], the pIC50 in data set [1] (Leishmania donovani, axenic amastigotes) was < 4.27; with Vero cells (Chlorocebus sabaeus) it was 4.39.

The record behind these values is patent US9872849B2, “Diterpenoid membranolide compounds having anti-leishmania activity and uses thereof” (UNIVERSITY OF SOUTH FLORIDA, priority 2014, dated 2018).
